In PubChem BioAssay (NCI):
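Assay format: 96-well plates, 48-hour exposure. TGI: total growth inhibition.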

Legend:
Test in all cases: inhibition of tumour cell growth, NCI panel, 48 h
SK-MEL-2 melanoma = system: SK-MEL-2 melanoma
UACC-257 melanoma = system: UACC-257 melanoma
UO-31 renal = system: UO-31 renal
DMS 114 small cell lung = system: DMS 114 small cell lung
SF-539 CNS = system: SF-539 CNS
HOP-18 NSCLC = system: HOP-18 NSCLC
XF 498 CNS = system: XF 498 CNS
U251 CNS = system: U251 CNS
DLD-1 colon = system: DLD-1 colon
OVCAR-5 ovarian = system: OVCAR-5 ovarian
NCI-H522 lung = system: NCI-H522 lung
M19-MEL melanoma = system: M19-MEL melanoma
MOLT-4 leukemia = system: MOLT-4 leukemia
SK-MEL-5 melanoma = system: SK-MEL-5 melanoma
HCC-2998 colon = system: HCC-2998 colon
CAKI-1 renal = system: CAKI-1 renal
KM12 colon = system: KM12 colon
MALME-3M melanoma = system: MALME-3M melanoma
COLO 205 colon = system: COLO 205 colon
A498 renal = system: A498 renal
NCI-H23 lung = system: NCI-H23 lung
SNB-78 CNS = system: SNB-78 CNS
LXFL 529 NSCLC = system: LXFL 529 NSCLC
NCI-H460 lung = system: NCI-H460 lung
HL-60(TB) leukemia = system: HL-60(TB) leukemia
SW-620 colon = system: SW-620 colon
KM20L2 colon = system: KM20L2 colon
DMS 273 small cell lung = system: DMS 273 small cell lung
SF-268 CNS = system: SF-268 CNS
IGROV1 ovarian = system: IGROV1 ovarian
SR leukemia = system: SR leukemia
UACC-62 melanoma = system: UACC-62 melanoma
SNB-19 CNS = system: SNB-19 CNS
LOX IMVI melanoma = system: LOX IMVI melanoma
HOP-62 NSCLC = system: HOP-62 NSCLC
TK-10 renal = system: TK-10 renal
SF-295 CNS = system: SF-295 CNS
SN12C renal = system: SN12C renal
SK-OV-3 ovarian = system: SK-OV-3 ovarian
HOP-92 NSCLC = system: HOP-92 NSCLC
M14 melanoma = system: M14 melanoma
OVCAR-3 ovarian = system: OVCAR-3 ovarian
SNB-75 CNS = system: SNB-75 CNS
OVCAR-8 ovarian = system: OVCAR-8 ovarian
OVCAR-4 ovarian = system: OVCAR-4 ovarian
786-0 renal = system: 786-0 renal
HCT-15 colon = system: HCT-15 colon
SK-MEL-28 melanoma = system: SK-MEL-28 melanoma
CCRF-CEM leukemia = system: CCRF-CEM leukemia
HT29 colon = system: HT29 colon
RXF-631 renal = system: RXF-631 renal
K-562 leukemia = system: K-562 leukemia
ACHN renal = system: ACHN renal
EKVX NSCLC = system: EKVX NSCLC
A549 NSCLC = system: A549 NSCLC
NCI-H226 lung = system: NCI-H226 lung
HCT-116 colon = system: HCT-116 colon
RXF 393 renal = system: RXF 393 renal
RPMI-8226 leukemia = system: RPMI-8226 leukemia

Molecule O=C(/C=C/c1ccc([N+](=O)[O-])cc1)c1ccc(NCc2nc3ccccc3[nH]2)cc1 has a TGI (SK-MEL-2 melanoma) of 29.7 µM, a TGI (UACC-257 melanoma) of 13.8 µM and a TGI (UO-31 renal) of 16.3 µM. It also gave a TGI (DMS 114 small cell lung) of 7.44 µM, a TGI (SF-539 CNS) of 8.08 µM and a TGI (HOP-18 NSCLC) of 31.3 µM. The TGI (XF 498 CNS) was 20.2 µM, the TGI (U251 CNS) was 3.23 µM and the TGI (DLD-1 colon) was 15.7 µM. The TGI (OVCAR-5 ovarian) was 26.3 µM, the TGI (NCI-H522 lung) was 11.9 µM and the TGI (M19-MEL melanoma) was 15.3 µM. For the same molecule, the TGI (MOLT-4 leukemia) was 10.2 µM, the TGI (SK-MEL-5 melanoma) was 16.3 µM and the TGI (HCC-2998 colon) was 6.38 µM. The TGI (CAKI-1 renal) was 21.2 µM, the TGI (KM12 colon) was 3.47 µM and the TGI (MALME-3M melanoma) was 28.3 µM. It also gave a TGI (COLO 205 colon) of 7.71 µM, a TGI (A498 renal) of 24.1 µM and a TGI (NCI-H23 lung) of 15.3 µM. It also gave a TGI (SNB-78 CNS) of 29 µM, a TGI (LXFL 529 NSCLC) of 8.61 µM and a TGI (NCI-H460 lung) of 5.64 µM. It also gave a TGI (HL-60(TB) leukemia) of 4.25 µM, a TGI (SW-620 colon) of 6.19 µM and a TGI (KM20L2 colon) of 15.3 µM. For the same molecule, the TGI (DMS 273 small cell lung) was 13.6 µM, the TGI (SF-268 CNS) was 26.6 µM and the TGI (IGROV1 ovarian) was 18.1 µM. The TGI (SR leukemia) was 8.15 µM, the TGI (UACC-62 melanoma) was 26 µM and the TGI (SNB-19 CNS) was 14.5 µM. The TGI (LOX IMVI melanoma) was 6.54 µM, the TGI (HOP-62 NSCLC) was 26.7 µM and the TGI (TK-10 renal) was 19.9 µM. For the same molecule, the TGI (SF-295 CNS) was 18.1 µM, the TGI (SN12C renal) was 14.8 µM and the TGI (SK-OV-3 ovarian) was 30.1 µM. For the same molecule, the TGI (HOP-92 NSCLC) was 21.8 µM, the TGI (M14 melanoma) was 24 µM and the TGI (OVCAR-3 ovarian) was 11.8 µM. The TGI (SNB-75 CNS) was 31.5 µM, the TGI (OVCAR-8 ovarian) was 12.9 µM and the TGI (OVCAR-4 ovarian) was 27.8 µM. The TGI (786-0 renal) was 10.8 µM, the TGI (HCT-15 colon) was 11.8 µM and the TGI (SK-MEL-28 melanoma) was 28 µM. It also gave a TGI (CCRF-CEM leukemia) of 6.16 µM, a TGI (HT29 colon) of 12.3 µM and a TGI (RXF-631 renal) of 19.7 µM. It also gave a TGI (K-562 leukemia) of 7.03 µM, a TGI (ACHN renal) of 23 µM and a TGI (EKVX NSCLC) of 22.2 µM.

In the case of c1ccc(NCn2cnc3ccccc32)cc1, the TGI (SK-MEL-2 melanoma) is reported as over 100 µM, the TGI (UACC-257 melanoma) is reported as over 100 µM and the TGI (UO-31 renal) is reported as over 100 µM. The TGI (DMS 114 small cell lung) was over 100 µM, the TGI (SF-539 CNS) was over 100 µM and the TGI (HOP-18 NSCLC) was over 100 µM. For the same molecule, the TGI (XF 498 CNS) was over 100 µM, the TGI (U251 CNS) was over 100 µM and the TGI (A549 NSCLC) was over 100 µM. For the same molecule, the TGI (DLD-1 colon) was over 100 µM, the TGI (NCI-H226 lung) was over 100 µM and the TGI (OVCAR-5 ovarian) was over 100 µM. For the same molecule, the TGI (NCI-H522 lung) was over 100 µM, the TGI (M19-MEL melanoma) was over 100 µM and the TGI (MOLT-4 leukemia) was over 100 µM. The TGI (SK-MEL-5 melanoma) was over 100 µM, the TGI (KM12 colon) was over 100 µM and the TGI (MALME-3M melanoma) was over 100 µM. The TGI (COLO 205 colon) was over 100 µM, the TGI (A498 renal) was over 100 µM and the TGI (NCI-H23 lung) was over 100 µM. For the same molecule, the TGI (SNB-78 CNS) was over 100 µM, the TGI (HCT-116 colon) was over 100 µM and the TGI (LXFL 529 NSCLC) was over 100 µM. It also gave a TGI (NCI-H460 lung) of over 100 µM, a TGI (SW-620 colon) of over 100 µM and a TGI (KM20L2 colon) of over 100 µM. For the same molecule, the TGI (DMS 273 small cell lung) was over 100 µM, the TGI (SF-268 CNS) was over 100 µM and the TGI (IGROV1 ovarian) was over 100 µM. The TGI (UACC-62 melanoma) was over 100 µM, the TGI (SNB-19 CNS) was over 100 µM and the TGI (LOX IMVI melanoma) was over 100 µM. For the same molecule, the TGI (TK-10 renal) was over 100 µM, the TGI (SF-295 CNS) was over 100 µM and the TGI (SN12C renal) was over 100 µM. The TGI (SK-OV-3 ovarian) was over 100 µM, the TGI (RXF 393 renal) was over 100 µM and the TGI (OVCAR-3 ovarian) was over 100 µM. For the same molecule, the TGI (SNB-75 CNS) was over 100 µM, the TGI (OVCAR-8 ovarian) was over 100 µM and the TGI (OVCAR-4 ovarian) was over 100 µM. The TGI (786-0 renal) was over 100 µM, the TGI (HCT-15 colon) was over 100 µM and the TGI (SK-MEL-28 melanoma) was over 100 µM. The TGI (CCRF-CEM leukemia) was over 100 µM, the TGI (HT29 colon) was over 100 µM and the TGI (RXF-631 renal) was over 100 µM. For the same molecule, the TGI (RPMI-8226 leukemia) was 71.6 µM, the TGI (K-562 leukemia) was over 100 µM and the TGI (ACHN renal) was over 100 µM. It also gave a TGI (EKVX NSCLC) of over 100 µM.
